{"source": "paper PMC3131257", "about": "“Hypericum lanceolatum (Hypericaceae) as a potential source of new anti-malarial agents: a bioassay-guided fractionation of the stem bark” (Malaria Journal, 2011)", "key": {"[1]": {"test_system": "multidrug-resistant W2mef strain of P. falciparum", "assay": "microbe, parasite or virus in culture", "format": "cell-based, Plasmodium falciparum", "description": "(§1) The W2mef (MRA-615) strain was ordered from the Malaria Research and Reference Reagent Resource Centre (MR4, Manassas, VA, USA), and maintained in continuous culture. The SHF4 field isolate previously isolated from a malaria patient in Buea in the South West region of Cameroon, had been stored in liquid nitrogen at the Biotechnology Unit, University of Buea.\n(§2) The field isolate and the laboratory strain of P. falciparum were grown and maintained in culture using the method of Trager and Jensen with some modification. All the chemicals except Albumax II (Gibco; Invitrogen, USA), were ordered from Sigma-Aldrich Inc (Germany). Cultures consisted of a 4% haematocrit suspension of O+ human erythrocytes in RPMI 1640 medium supplemented with a gentamicin solution at 0.01 mg/mL, 25 mM HEPES buffer, 25 mM NaHCO3, and 1% Albumax II. Cultures were fed with a gas mixture consisting of 5% CO2 and incubated at 37°C (CO2 incubator Heraeus, Hera cell 150; USA). The estimation of the parasitaemia as well as parasite visualization before incubation was done using both fluorescence (Acridine Orange) and normal light (Giemsa stain) microscopes.\n(§3) The drug sensitivity assay was carried out in 96-well microtitration plates as described by Desjardins et al with some modifications. All stock solutions were sterilized by passing them through a 0.2 μm syringe filter and stored at -20°C until required. Similarly, a 2 μg/mL stock solution of quinine dihydrochloride (Rotexmedica, Trittau, Germany) was prepared and used as positive control. The parasitaemia was measured using the parasite lactate dehydrogenase (pLDH) assay.\n(§4) The pLDH assay generates optical density (OD) values at various concentrations of the drug as raw data. OD values from control wells represent the maximum amount of pLDH produced by parasites and OD values from blank wells (containing a 4% suspension of non parasitized red blood cells in malaria culture medium) represented background pLDH activity. A 100% growth value, which corresponds to maximum LDH activity, was obtained by subtracting the mean OD value of blank wells from that of control wells. Likewise, the growth value at each concentration of the drug was obtained by adjusting OD values from drug-treated wells for background pLDH activity (parasite-free red blood cells). These values were then expressed as a percentage of the maximal growth value and plotted against corresponding concentrations of the drug using the software HN-NonLin V1.1 [14] to generate log dose-response curves from which the 50%, 90%, 95% and 99% Inhibitory Concentrations (IC50, IC90, IC95 and IC99 respectively) were obtained. Each product was tested in triplicate in each of the two separate experiments, giving a total of six repeats per product and per concentration tested. The IC50 values obtained from these replicates were pooled and expressed as geometric mean IC50 values and the different means compared among themselves by independent samples t-test using SPSS Statistics 17.0 (Chicago, USA)."}, "[2]": {"test_system": "field isolate (SHF4) of Plasmodium falciparum", "assay": "anti-plasmodial drug sensitivity assay, pLDH method, SHF4 field isolate", "format": "cell-based", "details": "for IC50: Plasmodium falciparum, pure compounds, pLDH assay", "description": "as §1, §2, §3, §4"}, "P. falciparum": {"test_system": "P. falciparum", "design": "method as in PMID 9581528", "details": "growth of P. falciparum; cited from earlier work"}, "K1": {"test_system": "K1", "details": "against K1; cited from earlier work"}, "[3]": {"assay": "cytotoxicity on LLC-MK2 monkey kidney epithelial cells", "details": "monkey, LLC-MK2 monkey kidney epithelial cells, CC50 on LLC-MK2, pure compounds; five days incubation", "description": "(§5) The cytotoxicity profiles of the extracts and pure compounds were estimated against LLC-MK2 monkey kidney epithelial cells according to the procedure previously described with some modifications. Cells were cultured under the same conditions as P. falciparum. Cells were distributed in 96-well plates at 20,000 cells per well in 100 μL culture medium, and allowed to attach and become confluent, for 24h. The medium was then removed completely the next day and 100 μL of fresh medium was added to all the wells, followed by 100 μL of crude extract (1000 μg/mL) or pure compounds (200 μg/mL) added in triplicate in row H. A two folds serial dilution was made upward to obtain concentration range of 250 - 3.90 μg/ml (crude extract) or 50 - 0.78 μg/ml (pure compounds), cells at row A serving as control without drug. The plates were incubated for five days at 37°C in 5% CO2 in air. Cells concentration and viability in the presence of extracts or pure compounds were compared with that of control cultures without extracts."}, "[4]": {"test_system": "LLC-MK2 monkey kidney epithelial cells", "assay": "cytotoxicity on LLC-MK2 monkey kidney epithelial cells", "details": "pure compounds; five days incubation", "description": "as §5"}, "[5]": {"test_system": "CQ-resistant K1 P. falciparum", "details": "betulinic acid from Uapaca nitida root bark; cited from earlier work"}, "[6]": {"test_system": "CQ-sensitive T9-96 P. falciparum", "details": "betulinic acid from Uapaca nitida root bark; cited from earlier work"}, "[7]": {"test_system": "W2 strain of P. falciparum", "design": "method as in PMID 18239315", "details": "betulinic acid from Psorospermum glaberrimum; cited from earlier work"}, "neural cells": {"test_system": "neural cells", "details": "in vitro; cited from earlier work"}, "[8]": {"details": "Plasmodium falciparum, read-out: IC50 on W2mef, pure compounds, pLDH assay"}, "[9]": {"details": "Plasmodium falciparum, read-out: IC50 on W2mef, pure compounds, values expressed in μg/mL (Table 2 footnote *, text b34)"}, "[10]": {"details": "read-out: IC50 on W2mef, pure compounds, pLDH assay"}}, "note": "Structures can show the parent of a compound that is named as a salt. Where two headings read alike, the source gives them in different places."}
{"compound": "C=C[C@H]1C[N@@]2CC[C@H]1C[C@H]2[C@H](O)c1ccnc2ccc(OC)cc12", "note": "[QN, quinine dihydrochloride, reference compound]", "values": [{"measurement": "IC50", "setting": "[1]; [8]", "result": "0.27 ± 0.04", "unit": "µM"}, {"measurement": "IC50", "setting": "[1]; Plasmodium falciparum, read-out: IC50 on W2mef, sub-extracts and fractions, pLDH assay", "result": "0.27 ± 0.04", "unit": "µg/mL"}, {"measurement": "IC50", "setting": "[2]", "result": "0.14 ± 0.05", "unit": "µM"}]}
{"compound": "garciniaxanthone", "values": [{"measurement": "IC50", "setting": "P. falciparum", "result": 0.96, "unit": "µg/mL"}]}
{"compound": "6-hydroxyluteolin-7-O-(1^2-a-rhamnoside", "values": [{"measurement": "IC50", "setting": "K1", "result": 2.13, "unit": "µg/mL"}]}
{"compound": "COc1cccc2c(=O)c3ccc(O)cc3oc12", "note": "[HLT4, 3-hydroxy-5-methoxyxanthone]", "values": [{"measurement": "IC50", "setting": "[1]; [8]", "result": "33.84 ± 0.2", "unit": "µM"}, {"measurement": "anti-plasmodial activity (in words)", "setting": "[1]; against W2mef", "result": "inactive"}, {"measurement": "IC50", "setting": "[2]", "result": "34.09 ± 0.12", "unit": "µM"}, {"measurement": "anti-plasmodial activity (in words)", "setting": "[2]; against the field isolate", "result": "inactive"}, {"measurement": "CC50 at 5 days", "setting": "[3]", "result": "10 to 30", "unit": "µg/mL"}, {"measurement": "CC50 on LLC-MK2", "setting": "[4]", "result": "12.50 ± 0.00", "unit": "µg/mL"}]}
{"compound": "C=C(C)[C@@H]1CC[C@]2(C(=O)O)CC[C@]3(C)[C@H](CC[C@@H]4[C@@]5(C)CC[C@H](O)C(C)(C)[C@@H]5CC[C@]43C)[C@@H]12", "note": "[HLT1, 3-hydroxy-lup-20(29)-en-28-oic acid]", "values": [{"measurement": "IC50", "setting": "[1]; [8]", "result": "< 5", "unit": "µM"}, {"measurement": "IC50", "setting": "[1]; [9]", "result": "< 5", "unit": "µg/mL"}, {"measurement": "IC50", "setting": "[1]; [10]", "result": "4.5 ± 1.35", "unit": "µM"}, {"measurement": "IC50", "setting": "[2]", "result": "5.6 ± 0.13", "unit": "µM"}, {"measurement": "CC50 on LLC-MK2", "setting": "[4]", "result": "25.00 ± 0.00", "unit": "µg/mL"}, {"measurement": "IC50", "setting": "[5]", "result": 19.6, "unit": "µg/mL"}, {"measurement": "IC50", "setting": "[6]", "result": 25.9, "unit": "µg/mL"}, {"measurement": "IC50", "setting": "[7]", "result": 5.1, "unit": "µM"}, {"measurement": "cytotoxic activity against neural cells (in words)", "setting": "neural cells", "result": "no significant cytotoxic activity"}]}
{"compound": "O=C(c1cc(O)ccc1O)c1c(O)cccc1O", "note": "[HLT2, 2,2',5,6'-tetrahydroxybenzophenone]", "values": [{"measurement": "IC50", "setting": "[1]; [8]", "result": "55.1 ± 0.93", "unit": "µM"}, {"measurement": "IC50", "setting": "[2]", "result": "13.4 ± 0.16", "unit": "µM"}, {"measurement": "CC50 at 5 days", "setting": "[3]", "result": "> 100", "unit": "µg/mL"}]}
{"compound": "COc1ccc2c(=O)c3cccc(O)c3oc2c1", "note": "[HLT3, 5-hydroxy-3-methoxyxanthone]", "values": [{"measurement": "IC50", "setting": "[1]; [8]", "result": "< 5", "unit": "µM"}, {"measurement": "IC50", "setting": "[1]; [9]", "result": "< 5", "unit": "µg/mL"}, {"measurement": "IC50", "setting": "[1]; [10]", "result": "3.26 ± 0.08", "unit": "µM"}, {"measurement": "IC50", "setting": "[2]", "result": "1.43 ± 0.48", "unit": "µM"}, {"measurement": "CC50 at 5 days", "setting": "[3]", "result": "> 100", "unit": "µg/mL"}]}
